The numbers were not newly measured in patent publication US11331424B2, “Apparatus, systems and methods for delivery of medication to the brain to treat neurological conditions” (InCube Labs, LLC, priority 2009, dated 2022), which cites them from elsewhere.

The conditions of data set [1]: oral administration.
The conditions of data set [2]: many patients; significant = more than about 10% increase in urine production or more than about 5% decrease in plasma electrolyte.
In data set [3] the test system is evoked and spontaneous epileptic neural activity. The following applies: epileptic animal models.
Data set [4] has the same test system. The following applies: human patients.

Like-named read-outs stand apart in the source and are kept apart here.

Consider `NS(=O)(=O)c1cc(C(=O)O)c(NCc2ccco2)cc1Cl` [Furosemide], for which the “time to get into the patient's blood stream” value in data set [1] was ≥ 30 min. Moreover, in data set [2], the “threshold dosage which produces a significant increase in diuresis and/or significant decrease in the patient's electrolyte level(s)” value was “about 20 mg”. Further, the “effect on evoked and spontaneous epileptic neural activity and subsequent cortical spreading depression” value in data set [3] is “block evoked and spontaneous epileptic neural activity and subsequent cortical spreading depression”; in data set [4] it was “block evoked and spontaneous epileptic neural activity and subsequent cortical spreading depression”.
